# Measurements taken from patent US20240400547A1, “2,6-PIPERIDINEDIONE COMPOUND AND APPLICATION THEREOF” (MEDSHINE DISCOVERY INC., priority 2021, published 2024).
# Structures can show the parent of a compound that is named as a salt.
# Legend:
# IRAK4 = molecular target: T1, IRAK4 (Homo sapiens, UniProt Q9NWZ3); assay: Target protein degradation in K562 IRAK4-HiBiT cells (Nano-Glo HiBiT); assay type: cell-based; details: 16 to 18 hours; for Dmax: read-out: Maximum degradation rate
# T1 construct: expressed in transfected cells; host or cells: K562 IRAK4-HiBiT cells
# T1 sequence (Q9NWZ3 1-460): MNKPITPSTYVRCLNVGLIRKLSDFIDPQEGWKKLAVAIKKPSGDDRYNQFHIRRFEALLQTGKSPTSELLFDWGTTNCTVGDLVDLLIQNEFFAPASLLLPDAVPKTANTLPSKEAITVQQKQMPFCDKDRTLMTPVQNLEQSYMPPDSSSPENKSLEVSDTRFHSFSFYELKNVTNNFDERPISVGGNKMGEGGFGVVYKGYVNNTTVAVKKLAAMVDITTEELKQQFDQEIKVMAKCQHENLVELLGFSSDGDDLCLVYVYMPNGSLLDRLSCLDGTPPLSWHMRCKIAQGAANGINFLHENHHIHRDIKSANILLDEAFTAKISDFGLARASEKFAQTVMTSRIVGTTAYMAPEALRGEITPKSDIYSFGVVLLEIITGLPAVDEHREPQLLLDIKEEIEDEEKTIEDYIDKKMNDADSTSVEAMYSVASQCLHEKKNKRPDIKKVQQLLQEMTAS
# Procedure: Experimental objective: The experiment aims to evaluate the degradation effect of the test compounds on the target protein IRAK4 in K562 IRAK4-HiBiT cells.
# • Cells: K562 IRAK4-HiBiT cells • Culture medium: RPMI 1640+10% fetal bovine serum+2 mM glutamine+1 mM sodium pyruvate+penicillin/streptomycin. • Positive control: 1000 nM; negative control: 0.1% DMSO.
# • (1). The powder of the compound to be tested was dissolved in DMSO to a storage concentration of 10 mM. A total of 9 μL of the 10 mM of the compound to be tested was manually pipetted into the 1st and 13th columns of the LDV plate using a pipettor; • (2). A volume of 6 μL of DMSO was added to columns 2-12 and 14-24 using a Multidrop Combi; • (3). A 3-fold dilution of the test compounds (3 μL+6 μL) was performed using Bravo, for columns 1-11 and 13-23; • (4). According to the plate layout, 25 nL of compound solution (columns 1-24 of the LDV plate) was transferred to the experimental plate using Echo; • (5) 25 nL of the 1 mM positive control solution was transferred to the assay plate as a 100% degradation control (i.e. LC, HPE), and 25 nL of DMSO was transferred to the assay plate as a 0% control (i.e. HC, ZPE).
# • (1) The culture medium was discarded, and the cells were washed once with DPBS, digested with trypsin, counted, and prepared into a cell suspension of […]. • (2) Using the MultiDrop Combi at a medium speed, 25 μL/well of the cell suspension was added to the experimental plate containing the test compounds; • (3) The experimental plate containing cells was returned to the incubator and cultured for 16 to 18 hours at 37° C. and 5% CO2.
# • (1). Using the MultiDrop Combi at a high speed, 25 μL/well of the assay reagent (NanoGlo lytic solution+substrate+LgBit protein) was added to the assay plate, followed by shaking for 10 minutes; • (2) The plate was centrifuged at 2000 rpm for 1 minute to remove any bubbles; • (3) Readings were obtained by using an Envision, US Luminescence reader.
# To calculate the degradation rate (DR) of the test compounds, the following formula is used: IR (%)=(RLU vehicle control−RLU compound)/(RLU vehicle control−RLU positive control)×100%. The solvent control refers to the blank control. The degradation rates of compounds at different concentrations were calculated in Excel, and then XLFit software was used to plot inhibition curves and calculate relevant parameters, including minimum degradation rate, maximum degradation rate, and DC50.
# IKZF1 = molecular target: T2, IKZF1 (Homo sapiens, UniProt Q13422+Q96SW2); assay: In Cell Western of IKZF1 protein expression level in MM.1S cells; assay type: cell-based; details: IKZF1, MM.1S cells, 24 hours; for Dmax: MM1.S, read-out: Maximum degradation rate Dmax
# T2 construct: host or cells: MM.1S cells
# T2 sequence (Q13422 whole entry): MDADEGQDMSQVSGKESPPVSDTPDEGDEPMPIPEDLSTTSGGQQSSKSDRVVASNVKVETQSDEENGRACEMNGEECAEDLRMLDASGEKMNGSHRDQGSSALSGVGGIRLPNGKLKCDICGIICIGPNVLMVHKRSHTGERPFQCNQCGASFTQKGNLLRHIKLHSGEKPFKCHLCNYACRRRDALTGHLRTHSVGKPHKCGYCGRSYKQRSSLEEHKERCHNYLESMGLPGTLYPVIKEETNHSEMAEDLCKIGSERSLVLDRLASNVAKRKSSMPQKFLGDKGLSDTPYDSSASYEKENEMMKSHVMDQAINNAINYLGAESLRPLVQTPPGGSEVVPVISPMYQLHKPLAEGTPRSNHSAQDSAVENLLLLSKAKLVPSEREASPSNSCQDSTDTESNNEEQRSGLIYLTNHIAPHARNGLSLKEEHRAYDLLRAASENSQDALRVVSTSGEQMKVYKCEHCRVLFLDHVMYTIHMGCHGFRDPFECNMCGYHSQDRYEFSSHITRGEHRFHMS
# T2 sequence (Q96SW2 whole entry): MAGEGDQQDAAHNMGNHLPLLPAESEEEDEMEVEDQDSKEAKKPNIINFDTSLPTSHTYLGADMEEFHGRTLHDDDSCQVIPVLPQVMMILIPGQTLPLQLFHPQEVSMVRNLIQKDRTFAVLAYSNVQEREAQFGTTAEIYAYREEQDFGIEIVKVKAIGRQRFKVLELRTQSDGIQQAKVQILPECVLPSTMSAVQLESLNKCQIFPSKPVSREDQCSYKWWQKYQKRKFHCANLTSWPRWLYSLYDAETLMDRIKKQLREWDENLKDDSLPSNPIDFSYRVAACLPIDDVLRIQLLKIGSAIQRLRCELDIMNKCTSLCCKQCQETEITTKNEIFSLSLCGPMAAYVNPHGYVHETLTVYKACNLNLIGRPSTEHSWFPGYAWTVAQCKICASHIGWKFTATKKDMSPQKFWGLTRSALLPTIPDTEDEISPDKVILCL
# T2 sequence (Q16531 whole entry partner): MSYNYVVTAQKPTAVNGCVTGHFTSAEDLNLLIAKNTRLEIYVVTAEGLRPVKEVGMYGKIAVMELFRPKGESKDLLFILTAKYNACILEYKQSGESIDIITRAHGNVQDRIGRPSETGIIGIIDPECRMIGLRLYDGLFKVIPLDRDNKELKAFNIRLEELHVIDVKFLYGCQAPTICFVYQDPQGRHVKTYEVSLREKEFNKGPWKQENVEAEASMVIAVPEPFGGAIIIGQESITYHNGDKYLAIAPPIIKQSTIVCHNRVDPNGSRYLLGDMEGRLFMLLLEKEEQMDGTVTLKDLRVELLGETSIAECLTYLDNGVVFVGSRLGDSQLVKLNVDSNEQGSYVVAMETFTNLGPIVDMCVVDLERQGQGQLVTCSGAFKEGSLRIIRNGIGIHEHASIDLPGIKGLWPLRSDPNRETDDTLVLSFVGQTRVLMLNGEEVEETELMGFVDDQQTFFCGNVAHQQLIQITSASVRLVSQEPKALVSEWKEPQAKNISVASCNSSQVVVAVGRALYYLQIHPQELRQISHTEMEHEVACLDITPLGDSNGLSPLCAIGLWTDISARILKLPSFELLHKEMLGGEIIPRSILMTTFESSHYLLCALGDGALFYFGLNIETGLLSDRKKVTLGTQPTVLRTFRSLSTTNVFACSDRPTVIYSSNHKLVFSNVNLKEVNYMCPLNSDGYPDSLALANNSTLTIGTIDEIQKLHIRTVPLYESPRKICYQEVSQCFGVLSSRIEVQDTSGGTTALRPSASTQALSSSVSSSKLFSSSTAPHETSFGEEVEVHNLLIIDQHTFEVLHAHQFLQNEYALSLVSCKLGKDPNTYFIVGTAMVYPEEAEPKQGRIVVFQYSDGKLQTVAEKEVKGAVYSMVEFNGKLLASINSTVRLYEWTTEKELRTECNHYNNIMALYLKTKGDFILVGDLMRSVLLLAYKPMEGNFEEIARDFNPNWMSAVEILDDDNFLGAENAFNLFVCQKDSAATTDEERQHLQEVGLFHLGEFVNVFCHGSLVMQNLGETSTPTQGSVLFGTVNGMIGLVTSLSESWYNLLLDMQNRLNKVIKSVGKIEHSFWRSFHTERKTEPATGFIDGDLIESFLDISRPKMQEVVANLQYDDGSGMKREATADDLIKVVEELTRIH
# Procedure: Experimental objective: The experiment aims to assess the degradation effect of the test compounds on IKZF1 and 1KZF3 proteins in MM.1S cells by evaluating the impact of the test compounds on the expression levels of IKZF1 and IZKZF3 proteins in MM.1S cells.
# • Cell lines: MMN.1 S cell (sourced from ATCC; Cat. No CRL-2974) • Negative control: 0.100 DMSO.
# • 1) Log phase MM.1 S cells were plated in a 96-well plate at 1.2×10^5 cells per well and cultured overnight; • 2) The next day, compounds were added with a starting concentration of 300 nM, diluted threefold across three replicate wells for 10 concentration gradients (including DMSO), and the cells were incubated for 24 hours in an incubator; • 3) The cells were centrifuged, and the supernatant was carefully removed. 150 μL of 4% paraformaldehyde fixative was added along the wall of the wells, avoiding contact with the bottom cells, and the cells were incubated at room temperature for 20 minutes; • 4) Lysis buffer was prepared by mixing 0.5 mL of 10% Triton X-100 with 49.5 mL of PBS until homogenous; • 5) 200 μL of lysis buffer was added along the well walls, again avoiding the bottom cells, and incubated on a shaker at room temperature for 5 minutes; • 6) The wells were washed four times; • 7) 150 μL of Licor […] Blocking Buffer was added along the well walls, avoiding the bottom cells, and the cells were incubated on a shaker at room temperature for 1.5 hours; • 8) Ikaros (D6N9Y) Rabbit mAb, Aiolos (D1C1E) Rabbit mAb and GAPDH mouse mAb (proteintech, 60004-1-Ig) were diluted at a 1:100 ratio using antibody dilution buffer; • 9) 50 μL of mixed antibody was added to each well with three replicate wells, and the cells were incubated overnight on a shaker at 4° C.; • 10) PBST (PBS with 0.1% Tween 20) was prepared; • 11) The primary antibodies were removed, and 200 μL of PBST was added along the well walls, avoiding the bottom cells, and the cells were incubated on a shaker at room temperature for 5 minutes; • 12) The wells were washed four times; • 13) Secondary antibody dilution buffer was prepared by adding Tween 20 to Licor […] Blocking Buffer to a final concentration of 0.2%; • 14) Fluorescent secondary antibodies were diluted in the dark at a 1:800 ratio. To 400 μL of secondary antibody dilution solution, 0.5 μL of each IRDye 800CW and IRDye 680CW (corresponding to the primary antibodies) was added. • 15) 50 μL of the diluted fluorescent secondary antibodies was added to each well and the cells were incubated on a shaker at room temperature in the dark for 60 minutes; • 16) The secondary antibodies were removed, and 200 μL of PBST was added along the well walls, avoiding the bottom cells, and the cells were incubated on a shaker at room temperature in the dark for 5 minutes; • 17) The wells were washed four times; immediately after washing, the Odyssey Gel Imaging System was used for detection at dual wavelengths of 700 nm and 800 nm.
# Using GraphPad Prism 6 software, inhibition rate data was entered to fit the curve and calculate the DC50 value.
DC50 (IRAK4) [nM],Dmax (IRAK4) [%],DC50 (IKZF1) [nM],Dmax (IKZF1) [%],SMILES
4,73.9,15.7,62.9,CC(C)(O)c1cc2nc(C3CCC(CN4CCN(CC(=O)Nc5cccc6c5ccc5onc(C7CCC(=O)NC7=O)c56)CC4)CC3)sc2cc1NC(=O)c1cccc(C(F)(F)F)n1 (stereo not drawn) [Formate of WX017]
29.9,75.1,3.77,85.2,CC(C)(O)c1cc2nc([C@H]3CC[C@H](CN4CCN(CC(=O)Nc5ccc6c(ccc7onc(C8CCC(=O)NC8=O)c76)c5)CC4)CC3)sc2cc1NC(=O)c1cccc(C(F)(F)F)n1 (stereo partly drawn) [Formate of WX020]
0.78,80.3,5.64,84.4,CC(C)(O)c1cc2nc([C@H]3CC[C@H](CN4CCN(CC(=O)Nc5ccc6c(C7CCC(=O)NC7=O)noc6c5)CC4)CC3)sc2cc1NC(=O)c1cccc(C(F)(F)F)n1 (stereo partly drawn) [Formate of WX026]
13.5,100,–,–,O=C1CCC(c2coc3cc(NC(=O)CN4CCN(C[C@H]5CC[C@H](N6CC(NC(=O)c7coc(-c8ccnc(NCC9CC9)c8)n7)C(C(F)F)N6)CC5)CC4)ccc23)C(=O)N1 (stereo partly drawn) [Hydrochloride of WX002]
7.91,119,14.5,88.8,O=C1CCC(c2noc3ccc4c(NC(=O)C(F)(F)C5CCN(CC6CCC(n7cc(NC(=O)c8coc(-c9ccnc(NCC%10CC%10)c9)n8)c(C(F)F)n7)CC6)CC5)cccc4c23)C(=O)N1 (stereo not drawn) [Hydrochloride of WX018]
2.53,105,14.4,72.2,O=C1CCC(c2noc3cc(NC(=O)CN4CCN(C[C@H]5CC[C@H](n6cc(NC(=O)c7coc(-c8ccnc(NCC9CC9)c8)n7)c(C(F)F)n6)CC5)CC4)ccc23)C(=O)N1 (stereo partly drawn) [Hydrochloride of WX025]
2.11,–,26.7,49.7,O=C1CCC(c2noc3c(NC(=O)CN4CCN(C[C@H]5CC[C@H](n6cc(NC(=O)c7coc(-c8ccnc(NCC9CC9)c8)n7)c(C(F)F)n6)CC5)CC4)cccc23)C(=O)N1 (stereo partly drawn) [Hydrochloride of WX028]
9.6,105,–,–,O=C1CCC(c2coc3ccc4c(NC(=O)CN5CCN(C[C@H]6CC[C@H](n7cc(NC(=O)c8coc(-c9ccnc(NCC%10CC%10)c9)n8)c(C(F)F)n7)CC6)CC5)cccc4c23)C(=O)N1 (stereo partly drawn) [Trifluoroacetate of WX011]
